{
  "source": "patent US7087219B2",
  "about": "“Toothpaste containing anticancer agents” (priority 2003, dated 2006)",
  "origin": "cited, not measured here",
  "key": {"[1]": {"details": "according to publications and patents (Burzynski et al. 1986)"}, "[2]": {"details": "general statement; marketed as a food supplement"}},
  "data": [
    {"compound": "O=C1CCC(NC(=O)Cc2ccccc2)C(=O)N1", "note": "(centres unmarked) [3-N-phenylacetylamino-2,6-piperidinedione]", "values": [
      {"measurement": "efficacy in treating cancers in clinical trials", "setting": "[1]", "result": "effective in treating a variety of cancers in clinical trials"},
      {"measurement": "toxicity", "setting": "[2]", "result": "completely non-toxic"}
    ]}
  ]
}
